Source: the supplement of paper PMC11061612

What was measured:
Experiment in all cases: Bliss excess, mean over the matrix (fraction); higher = more synergy
A101D (Melanoma) = tested on: A101D (Melanoma)
Outline: (§1)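 Bliss excess equals the observed combination effect minus the expected value EA + EB − EA·EB, where EA and EB are the effects of each agent alone. Combination Emax is the second-highest inhibition within the matrix. Inhibition was scaled from CellTiter-Glo 2.0 luminescence, with 0 set by vehicle wells and 1 by blank wells, after 72 hours of two-drug dosing of cells plated in 1536-well plates.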

A204 (Rhabdomyosarcoma) = tested on: A204 (Rhabdomyosarcoma)
Outline: as §1

AU565 (Breast Carcinoma) = tested on: AU565 (Breast Carcinoma)
Outline: as §1

[1] = tested on: CA46 (Burkitt's Lymphoma)
Outline: as §1

[2] = tested on: CESS (Acute Myeloid Leukemia)
Outline: as §1

COLO-792 (Melanoma) = tested on: COLO-792 (Melanoma)
Outline: as §1

[3] = tested on: DMS-53 (Small Cell Lung Carcinoma)
Outline: as §1

[4] = tested on: EPLC-272H (Other Solid Carcinomas)
Outline: as §1

[5] = tested on: ESO26 (Esophageal Adenocarcinoma)
Outline: as §1

[6] = tested on: G-402 (Other Solid Carcinomas)
Outline: as §1

[7] = tested on: GCT (Other Solid Carcinomas)
Outline: as §1

[8] = tested on: JIMT-1 (Breast Carcinoma)
Outline: as §1

KP-N-YN (Neuroblastoma) = tested on: KP-N-YN (Neuroblastoma)
Outline: as §1

[9] = tested on: KYSE-140 (Esophageal Squamous Cell Carcinoma)
Outline: as §1

NB13 (Neuroblastoma) = tested on: NB13 (Neuroblastoma)
Outline: as §1

[10] = tested on: NCI-H716 (Colorectal Carcinoma)
Outline: as §1

[11] = tested on: OACp4C (Esophageal Adenocarcinoma)
Outline: as §1

RH-41 (Rhabdomyosarcoma) = tested on: RH-41 (Rhabdomyosarcoma)
Outline: as §1

[12] = tested on: TE-10 (Esophageal Squamous Cell Carcinoma)
Outline: as §1

[13] = tested on: huH-1 (Hepatocellular Carcinoma)
Outline: as §1

Row | Structure (SMILES) | Bliss excess (A101D (Melanoma)) | Bliss excess (A204 (Rhabdomyosarcoma)) | Bliss excess (AU565 (Breast Carcinoma)) | Bliss excess [1] | Bliss excess [2] | Bliss excess (COLO-792 (Melanoma)) | Bliss excess [3] | Bliss excess [4] | Bliss excess [5] | Bliss excess [6] | Bliss excess [7] | Bliss excess [8] | Bliss excess (KP-N-YN (Neuroblastoma)) | Bliss excess [9] | Bliss excess (NB13 (Neuroblastoma)) | Bliss excess [10] | Bliss excess [11] | Bliss excess (RH-41 (Rhabdomyosarcoma)) | Bliss excess [12] | Bliss excess [13]
1 | CN(CCO)CC[C@H](CSc1ccccc1)Nc1ccc(S(=O)(=O)NC(=O)c2ccc(N3CCC([C@@H](O)c4ccccc4-c4ccc(Cl)cc4)CC3)cc2)cc1S(=O)(=O)C(F)(F)F [AZD4320] + Cc1cc2ncnn2cc1Nc1ncc2c(n1)n(C1CCOCC1)c(=O)n2C [AZD7648] (first compound max 1 µM, 7x7, partner max 10 µM) | -0.0275 | -0.0551 | -0.0132 | -0.0061 | -0.0106 | 0.0951 | 0.0475 | -0.0318 | -0.0208 | -0.0144 | -0.0504 | -0.0513 | -0.0238 | -0.0866 | -0.0223 | -0.0253 | 0.0447 | 0.0309 | -0.0276 | -0.0586
2 | Cc1cc2ncnn2cc1Nc1ncc2c(n1)n(C1CCOCC1)c(=O)n2C [AZD7648] + CN(C)CCCOc1ccc(-c2ccc3ncc4c(c3c2)n(C2CCOCC2)c(=O)n4C)cn1 [AZD0156] (first compound max 10 µM, 7x7, partner max 1 µM) | -0.0016 | -0.0372 | 0.0589 | -0.0193 | -0.0013 | 0.036 | -0.0087 | -0.0251 | -0.031 | -0.0271 | 0.0042 | 0.0217 | 0.0088 | -0.0325 | -0.0173 | 0.0563 | 0.0043 | 0.0197 | -0.0023 | 0.0674
3 | CN(CCO)CC[C@H](CSc1ccccc1)Nc1ccc(S(=O)(=O)NC(=O)c2ccc(N3CCC([C@@H](O)c4ccccc4-c4ccc(Cl)cc4)CC3)cc2)cc1S(=O)(=O)C(F)(F)F [AZD4320] + CCN(CCO)CCCOc1ccc2c(Nc3cc(CC(=O)Nc4cccc(F)c4)[nH]n3)ncnc2c1 [AZD2811] (first compound max 1 µM, 7x7, partner max 1 µM) | 0.0418 | -0.0553 | 0.0712 | -0.0191 | 0.164 | 0.0627 | -0.0067 | 0.0873 | -0.0266 | 0.0415 | -0.0089 | 0.0004 | 0.0516 | 0.0082 | 0.0975 | -0.0242 | 0.0011 | 0.0867 | 0.038 | 0.0161
4 | Cc1cc2ncnn2cc1Nc1ncc2c(n1)n(C1CCOCC1)c(=O)n2C [AZD7648] + O=C(c1cc(Cc2n[nH]c(=O)c3ccccc23)ccc1F)N1CCN(C(=O)C2CC2)CC1 [Olaparib] (first compound max 10 µM, 7x7, partner max 10 µM) | -0.0478 | -0.0802 | -0.0658 | -0.0518 | -0.0101 | -0.0435 | -0.0266 | 0.0608 | -0.003 | -0.0814 | -0.0488 | -0.0191 | 0.0332 | -0.0146 | -0.0247 | -0.0056 | -0.0203 | -0.0293 | 0.011 | -0.0557
5 | COc1cc2c(cc1OCCCCCOc1cc3c(cc1OC)C(=O)N1C=C(C)C[C@H]1C=N3)N=C[C@@H]1CC(C)=CN1C2=O [SG3199] + O=C(c1cc(Cc2n[nH]c(=O)c3ccccc23)ccc1F)N1CCN(C(=O)C2CC2)CC1 [Olaparib] (first compound max 0.001 µM, 7x7, partner max 10 µM) | -0.0365 | -0.0686 | -0.0315 | -0.0357 | -0.0156 | -0.0373 | -0.0259 | -0.0023 | 0.0119 | -0.0289 | -0.0325 | -0.0188 | -0.0387 | -0.0186 | -0.0143 | -0.0322 | -0.0268 | 0.0396 | -0.0402 | -0.0278
6 | CN(CCO)CC[C@H](CSc1ccccc1)Nc1ccc(S(=O)(=O)NC(=O)c2ccc(N3CCC([C@@H](O)c4ccccc4-c4ccc(Cl)cc4)CC3)cc2)cc1S(=O)(=O)C(F)(F)F [AZD4320] + C1CN(CCC1(C(=O)N[C@@H](CCO)C2=CC=C(C=C2)Cl)N)C3=NC=NC4=C3C=CN4 [Capivasertib] (first compound max 1 µM, 7x7, partner max 3 µM) | -0.0695 | -0.0393 | 0.0161 | -0.0496 | 0.0517 | 0.0021 | -0.0195 | -0.0089 | -0.0271 | -0.0262 | -0.021 | -0.0424 | -0.0237 | -0.0432 | 0.0174 | -0.0262 | 0.0209 | -0.0159 | -0.0212 | -0.0215
